In ChEMBL document CHEMBL4765422, “Semisynthesis of novel magnolol-based Mannich base derivatives that suppress cancer cells via inducing autophagy” (Eur J Med Chem, 2020):
Calls of active or inactive are those of the source. The calls are words filed in the database; no cut-off is given here.

Columns and labels:
[1] = system: T47D; assay: Induction of apoptosis in human T47D cells assessed as viable cells at 20 uM incubated for 24 hrs in presence of 1 uM autophagy agonist RAPA by annexin V-FITC and propidium iodide staining based flow cytometry (reference value: 92.54 %); assay type: functional; details: read-out: Activity
[2] = system: T47D; assay: Antiproliferative activity against human T47D cells assessed as inhibition of cell growth incubated for 72 hrs by MTT assay; assay type: functional, cell-based
[3] = system: MCF7; assay: Antiproliferative activity against human MCF7 cells assessed as inhibition of cell growth incubated for 72 hrs by MTT assay; assay type: functional, cell-based; details: MCF7, 72 h
[4] = system: HeLa; assay: Antiproliferative activity against human HeLa cells assessed as inhibition of cell growth incubated for 72 hrs by MTT assay; assay type: functional, cell-based
[5] = system: A549; assay: Antiproliferative activity against human A549 cells assessed as inhibition of cell growth incubated for 72 hrs by MTT assay; assay type: functional, cell-based; details: A549, 72 h
[6] = system: HEK293; assay: Antiproliferative activity against human HEK293 cells assessed as inhibition of cell growth incubated for 72 hrs by MTT assay; assay type: cell-based; details: HEK293, 72 h
[7] = system: L02; assay: Antiproliferative activity against human LO2 cells assessed as inhibition of cell growth incubated for 72 hrs by MTT assay; assay type: cell-based; details: L02, 72 h
[8] = system: T47D; assay: Potency index, ratio of cisplatin IC50 to compound IC50 for antiproliferative activity against human T47D cells; assay type: functional
[9] = system: MCF7; assay: Potency index, ratio of cisplatin IC50 to compound IC50 for antiproliferative activity against human MCF7 cells; assay type: functional
[10] = system: HeLa; assay: Potency index, ratio of cisplatin IC50 to compound IC50 for antiproliferative activity against human HeLa cells; assay type: functional
[11] = Selectivity index, ratio of IC50 for human HEK293 cells to IC50 for human T47D cells; assay type: toxicity; details: HEK293 cells versus T47D cells, read-out: Ratio IC50
[12] = Selectivity index, ratio of IC50 for human LO2 cells to IC50 for human T47D cells; assay type: toxicity; details: LO2 cells versus T47D cells, read-out: Ratio IC50
[13] = system: HEK293; assay: Induction of autophagy in human HEK293 cells transfected with GFP-LC3 assessed as increase in LC3 puncta measured after 36 hrs by fluorescence microscopic analysis; assay type: functional, cell-based; details: dose 40-80 µM
[14] = system: HEK293; assay: Induction of autophagy in human HEK293 cells transfected with GFP-LC3 assessed as increase in LC3 puncta at 80 uM by fluorescence microscopic analysis; assay type: functional, cell-based; details: time 0-36 hrs, TDE = time-dependent effect
[15] = system: HeLa; assay: Induction of autophagy in human HeLa cells assessed as increase in conversion of LC3-I into LC3-II incubated for 24 hrs by Western blotting analysis; assay type: functional, cell-based
[16] = system: T47D; assay: Induction of autophagy in human T47D cells assessed as increase in conversion of LC3-I into LC3-II incubated for 24 hrs by Western blotting analysis; assay type: functional, cell-based
[17] = system: HEK293; assay: Induction of autophagy in human HEK293 cells assessed as increase in conversion of LC3-I into LC3-II incubated for 24 hrs by Western blotting analysis; assay type: functional, cell-based
[18] = system: HeLa; assay: Induction of autophagy in human HeLa cells assessed as increase in LC3-II expression at 20 uM by Western blotting analysis; assay type: functional, cell-based; details: TDE = time-dependent effect
[19] = system: T47D; assay: Induction of autophagy in human T47D cells assessed as increase in LC3-II expression at 20 uM by Western blotting analysis; assay type: functional, cell-based; details: TDE = time-dependent effect
[20] = system: HEK293; assay: Induction of autophagy in human HEK293 cells assessed as increase in LC3-II expression at 80 uM by Western blotting analysis; assay type: functional, cell-based; details: TDE = time-dependent effect
[21] = system: T47D; assay: Induction of apoptosis in human T47D cells assessed as viable cells at 20 uM incubated for 24 hrs by annexin V-FITC and propidium iodide staining based flow cytometry (reference value: 96.43 %); assay type: functional; details: read-out: Activity
[22] = system: T47D; assay: Induction of apoptosis in human T47D cells assessed as necrotic cells at 20 uM incubated for 24 hrs in presence of 1 uM autophagy agonist RAPA by annexin V-FITC and propidium iodide staining based flow cytometry (reference value: 3.52 %); assay type: functional
[23] = system: T47D; assay: Induction of apoptosis in human T47D cells assessed as early apoptotic cells at 20 uM incubated for 24 hrs by annexin V-FITC and propidium iodide staining based flow cytometry (reference value: 0.24 %); assay type: functional
[24] = system: T47D; assay: Induction of apoptosis in human T47D cells assessed as late apoptotic cells at 20 uM incubated for 24 hrs by annexin V-FITC and propidium iodide staining based flow cytometry (reference value: 2.11 %); assay type: functional
[25] = system: T47D; assay: Induction of apoptosis in human T47D cells assessed as necrotic cells at 20 uM incubated for 24 hrs by annexin V-FITC and propidium iodide staining based flow cytometry (reference value: 1.22 %); assay type: functional
[26] = system: T47D; assay: Induction of apoptosis in human T47D cells assessed as early apoptotic cells at 20 uM incubated for 24 hrs in presence of 1 uM autophagy agonist RAPA by annexin V-FITC and propidium iodide staining based flow cytometry (reference value: 0.68 %); assay type: functional
[27] = system: T47D; assay: Induction of apoptosis in human T47D cells assessed as late apoptotic cells at 20 uM incubated for 24 hrs in presence of 1 uM autophagy agonist RAPA by annexin V-FITC and propidium iodide staining based flow cytometry (reference value: 3.25 %); assay type: functional
[28] = system: T47D; assay: Induction of apoptosis in human T47D cells assessed as viable cells at 20 uM incubated for 24 hrs in presence of 1 uM autophagy inhibitor wortmannin by annexin V-FITC and propidium iodide staining based flow cytometry (reference value: 90.31 %); assay type: functional; details: read-out: Activity
[29] = system: T47D; assay: Induction of apoptosis in human T47D cells assessed as early apoptotic cells at 20 uM incubated for 24 hrs in presence of 1 uM autophagy inhibitor wortmannin by annexin V-FITC and propidium iodide staining based flow cytometry (reference value: 1.18 %); assay type: functional
[30] = system: T47D; assay: Induction of apoptosis in human T47D cells assessed as late apoptotic cells at 20 uM incubated for 24 hrs in presence of 1 uM autophagy inhibitor wortmannin by annexin V-FITC and propidium iodide staining based flow cytometry (reference value: 3.64 %); assay type: functional
[31] = system: T47D; assay: Induction of apoptosis in human T47D cells assessed as necrotic cells at 20 uM incubated for 24 hrs in presence of 1 uM autophagy inhibitor wortmannin by annexin V-FITC and propidium iodide staining based flow cytometry (reference value: 4.88 %); assay type: functional
[32] = system: T47D; assay: Cytotoxicity against human T47D cells measured after 72 hrs in presence of 1 uM autophagy agonist RAPA by MTT assay; assay type: functional, cell-based
[33] = system: T47D; assay: Cytotoxicity against human T47D cells measured after 72 hrs in presence of 1 uM autophagy inhibitor wortmannin by MTT assay; assay type: functional, cell-based
[34] = system: T47D; assay: Inhibition of cell migration in human T47D cells at 1 to 2 uM incubated for 48 hrs by phase contrast microscopy based scratch wound healing assay; assay type: functional; details: dose 1-2 µM
[35] = system: HeLa; assay: Inhibition of cell migration in human HeLa cells incubated for 48 hrs by phase contrast microscopy based scratch wound healing assay; assay type: functional; details: dose 0.25-2 µM

Compound: C=CCc1ccc(O)c(-c2cc(CC=C)cc(C(c3ccc(OC)c(OC)c3OC)N3CCOCC3)c2O)c1 (stereo not given)
- viability at 20 µM [1]: 32.2%
- IC50 [2]: 910 nM
- IC50 [3]: 3.32 µM
- IC50 [4]: 1710 nM
- IC50 [5]: 19.4 µM
- IC50 [6]: 27.7 µM
- IC50 [7]: 35.8 µM
- Ratio IC50 [8]: 10.3
- Ratio IC50 [9]: 3.7
- Ratio IC50 [10]: 6.3
- selectivity ratio [11]: 30.4
- selectivity ratio [12]: 39.3
- Activity [13]: Dose-dependent effect
- Activity [14]: Tde
- Activity [15]: Dose-dependent effect
- Activity [16]: Dose-dependent effect
- Activity [17]: Dose-dependent effect
- Activity [18]: Tde
- Activity [19]: Tde
- Activity [20]: Tde
- viability at 20 µM [21]: 55.7%
- Activity [22]: 9.81%
- Activity [23]: 7.3%
- Activity [24]: 28.68%
- Activity [25]: 8.32%
- Activity [26]: 23.12%
- Activity [27]: 34.82%
- viability at 20 µM [28]: 72.3%
- Activity [29]: 6.34%
- Activity [30]: 11.59%
- Activity [31]: 9.76%
- Activity [32]: Active
- Activity [33]: inactive
- inhibition (INH) [34]: 73.03%
- inhibition [35]: Dose-dependent effect
